One series deals with hCA IX (Homo sapiens, UniProt Q16790). Description: stopped-flow CO2 hydrase assay, hCA IX. Format: biochemical. The note with it: incubation time 6 h, mean of three experiments. How it is done: (§1) The target coumarins 5a–p and 7a–c were examined for their CA inhibitory actions towards the ubiquitous CA I and II (cytosolic) as well as the tumour-associated CA IX and XII isozymes by the use of a stopped-flow CO2 hydrase assay, using acetazolamide (AZA) as a reference compound.
(§2) The experimental procedures utilised for CA inhibitory assay of the target compounds were carried out as described earlier, and presented in the Supplementary Materials.

In a further series the target is hCA I (Homo sapiens, UniProt P00915). Description: stopped-flow CO2 hydrase assay, hCA I. Format: biochemical. The note with it: incubation time 6 h, mean of three experiments. As to the method: as §1, §2
Sequence of hCA I (P00915 whole entry): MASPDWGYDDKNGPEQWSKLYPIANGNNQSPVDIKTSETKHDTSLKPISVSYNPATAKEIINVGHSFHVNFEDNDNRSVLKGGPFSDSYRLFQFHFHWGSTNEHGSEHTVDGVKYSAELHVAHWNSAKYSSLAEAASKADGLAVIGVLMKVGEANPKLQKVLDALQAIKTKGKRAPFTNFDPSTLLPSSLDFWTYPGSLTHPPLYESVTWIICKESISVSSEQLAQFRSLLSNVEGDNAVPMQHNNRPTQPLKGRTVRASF
Another series deals with MCF-7 cells. Description: MTT antiproliferative assay, MCF-7. Format: cell-based, human. The note with it: Homo sapiens, mean ± SEM of three experiments; for inhibition at 10 µM: MCF7, MCF7, 10 µM, read-out: % Growth inhibition MCF7 10 µM; for inhibition at 100 µM: MCF7, MCF7, 100 µM, read-out: % Growth inhibition MCF7 100 µM. As to the method:
(§3) Encouraged by the favourable selectivity profile of ureidocoumarins 5a–p and amidocoumarins 7a–c towards hCA IX and hCA XII, they were further examined for their prospective antiproliferative activity against human colorectal (HCT-116) and breast (MCF-7) cancer cell lines, adopting the MTT assay.
(§4) The evaluation of anticancer activity of the target compounds was conducted by MTT assay adopting the literature procedure.
(Formazan colour is commonly taken as a measure of viable cells.)

For another series, the target named is hCA XII (Homo sapiens, UniProt O43570). Description: stopped-flow CO2 hydrase assay, hCA XII. Format: biochemical. The note with it: incubation time 6 h, mean of three experiments. As to the method:
as §1, §2

The target of the next series is hCA II (Homo sapiens, UniProt P00918). Put plainly: stopped-flow CO2 hydrase assay, hCA II. Type of series: biochemical. The note with it: incubation time 6 h, mean of three experiments. As to the method: as §1, §2
For the next series, the system named is HCT-116 cells. Put plainly: MTT antiproliferative assay, HCT-116. Type of series: cell-based, human. Particulars: Homo sapiens, mean ± SEM of three experiments; for inhibition at 10 µM: HCT-116, HCT116, 10 µM, read-out: % Growth inhibition HCT116 10 µM; for inhibition at 100 µM: HCT-116, HCT116, 100 µM, read-out: % Growth inhibition HCT116 100 µM. How it is done:
as §3, §4

Sequence of hCA XII (O43570 25-354): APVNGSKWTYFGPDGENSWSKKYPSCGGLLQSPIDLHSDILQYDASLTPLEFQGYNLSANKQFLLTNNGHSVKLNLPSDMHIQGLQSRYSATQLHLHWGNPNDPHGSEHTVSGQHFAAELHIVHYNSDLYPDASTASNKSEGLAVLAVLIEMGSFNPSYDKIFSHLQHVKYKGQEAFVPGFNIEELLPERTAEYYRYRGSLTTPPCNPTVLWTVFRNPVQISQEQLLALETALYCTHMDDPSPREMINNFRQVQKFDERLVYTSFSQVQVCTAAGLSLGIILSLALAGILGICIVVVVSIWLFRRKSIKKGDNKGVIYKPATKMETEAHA

The Ki is the equilibrium dissociation constant of an inhibitor or competing ligand from its target. A low value points to a stronger hold on the target. A word on the melting point: it is the temperature of the solid-liquid transition. The inhibition is the percentage by which the read-out fell short of the control. On to `Cc1cc(C)cc(NC(=O)Nc2ccc3oc(=O)ccc3c2)c1` [Compound 5k, 1-(3,5-Dimethylphenyl)-3-(2-oxo-2H-chromen-6-yl)urea], for which the melting point is 238 to 239 °C. The compound also showed a Ki at hCA IX of 42.9 nM. On hCA I, this compound returned a Ki of over 100 µM. In the series on MCF-7 cells, the inhibition at 10 µM was determined as 33.2 ± 3.2% and the inhibition at 100 µM was 66.7 ± 5%. The Ki at hCA XII stood at 27.4 nM. For the same compound, the Ki at hCA II is over 100 µM. Moreover, in the series with HCT-116 cells, the inhibition at 10 µM is 14.5 ± 2.7% and the inhibition at 100 µM worked out at 87.4 ± 1.8%.

`O=C(Nc1ccc2oc(=O)ccc2c1)c1cc(F)cc(F)c1` [Compound 7c, 3,5-Difluoro-N-(2-oxo-2H-chromen-6-yl)benzamide] had a melting point of 301 to 303 °C. Moreover, affinity at hCA IX was put at a Ki of 61 nM. This compound had an inhibitory constant (Ki) at hCA I of over 100 µM. In addition, in the series on MCF-7 cells, the inhibition at 10 µM amounted to 21.1 ± 3.3% and the inhibition at 100 µM came out at 21.4 ± 4.7%. This compound also returned a Ki on hCA XII of 40.5 nM. For the same compound, the Ki on hCA II was over 100 µM. Further, in the series on HCT-116 cells, the inhibition at 10 µM was found to be 21.8 ± 3% and the inhibition at 100 µM came to 52 ± 5.1%.

Consider `O=C(Nc1ccc2oc(=O)ccc2c1)c1cc(C(F)(F)F)cc(C(F)(F)F)c1` [Compound 7b, N-(2-Oxo-2H-chromen-6-yl)-3,5-bis(trifluoromethyl)benzamide], for which the melting point fell in the range of 240 to 241 °C. On hCA IX, this compound gave a Ki of 55.6 nM. The compound also showed a Ki at hCA I of over 100 µM. Moreover, in the series on MCF-7 cells, the inhibition at 10 µM amounted to 11.3 ± 4% and the inhibition at 100 µM was determined as 62.9 ± 6.4%. In addition, the Ki on hCA XII was determined as 37.5 nM. At hCA II, this compound returned a Ki of over 100 µM. For the same compound, in the series with HCT-116 cells, the inhibition at 10 µM is 19.6 ± 2.4% and the inhibition at 100 µM worked out at 76 ± 2.5%.
